In patent publication US6335451B1, “Five-membered heterocycles having biphenylsulfonyl substitution, with sulfonylcyanamide side chain, compositions containing them, and methods of using them” (Hoechst Aktiengesellschaft, priority 1997, dated 2002):

Key:
[1] = tested on: Na+-dependent Cl−/HCO3− exchanger (NCBE); assay: Inhibition of the Na+-dependent Cl−/HCO3− exchanger (NCBE) in human endothelial cells (pHi recovery, BCECF fluorescence, FLIPR); type: cell-based; details: inhibitor concentration of 10 μM; human endothelial cells (ECV-304); relative to 100% and 0% pHi recovery controls, 50 μM HOE 642 present
Method: Inhibition of the Na^+-dependent Cl^−/HCO3^− exchanger (NCBE) in human endothelial cells
Human endothelial cells (ECV-304) were detached from culture bottles with the aid of trypsin/EDTA buffer (0.05/0.02% in phosphate buffer) and, after centrifugation (100 g, 5 min), taken up in a buffered salt solution (mmol/l: 115 NaCl, 20 NH4Cl, 5 KCl, 1 CaCl2, 1 MgSO4, 20 N-(2-hydroxyethyl)piperazine-N′-2-ethanesulfonic acid (HEPES), 5 glucose and 1 g/l of bovine serum albumin; pH 7.4). This cell suspension was incubated at 37° C. for 20 min with 5 μM BCECF-acetoxymethyl ester. The cells were then washed and resuspended in a sodium- and bicarbonate-free buffer solution (mmol/l: 5 HEPES, 133.8 choline chloride, 4.7 KCl, 1.25 MgCl2, 0.97 K2HPO4, 0.23 KH2PO4, 5 glucose; pH 7.4).
For subsequent fluorescence measurement in an FLIPR (Fluorescent Imaging Plate Reader) 100 μl of this cell suspension having 20,000 cells in each case were pipetted per well into a 96-well microtiter plate and this microtiter plate was centrifuged (100 g, 5 min).
In the FLIPR, 100 μl of buffer solution in each case were then removed from a further pretreated microtiter plate and pipetted into each of the 96 wells of the measurement plate. A bicarbonate- and sodium-containing buffer solution (mmol/l: 5 HEPES, 93.8 NaCl, 40 NaHCO3, 4.7 KCl, 1.25 CaCl2, 1.25 MgCl2, 0.97 Na2HPO4, 0.23 NaH2PO4, 5 glucose; pH 7.4) which contained 50 μM HOE 642 was used for a 100% control, i.e. a recovery of the intracellular pH (pHi) via the NCBE. For a 0% control, i.e. no pHi recovery at all, the bicarbonate-free, sodium-containing buffer solution (mmol/l: 5 HEPES, 133.8 NaCl, 4.7 KCl, 1.25 CaCl2, 1.25 MgCl2, 0.97 Na2HPO4, 0.23 NaH2PO4, 5 glucose; pH 7.4) was employed, to which 50 μM HOE 642 were likewise added. The compounds according to the invention were added to the sodium- and bicarbonate-containing solution in various concentrations.
After addition of the buffer solutions to the dye-loaded, acidified cells in the measurement plate, the rise in the fluorescence intensity which corresponded to a rise in the pHi in each well of the microtiter plate was determined. The kinetics were in this case recorded at 35° C. for a period of 2 minutes.
The increase in the fluorescence intensities for different concentrations of the compounds according to the invention was related to the two controls and from this inhibitory action of the substances was determined.
Residual Activity of the NCBE at an Inhibitor Concentration of 10 μM

| melting point | SMILES | Residual activity in % (residual activity of the NCBE) [1] [%] |
| --- | --- | --- |
| 111 °C (dec.) | CCCCc1nc(SC)c(C(=O)OCC)n1Cc1ccc(-c2ccccc2S(=O)(=O)NC#N)cc1 [Example 1, Ethyl 2-butyl-5-methylsulfanyl-3-(2′-cyanoaminosulfonyl-biphenyl-4-ylmethyl)-3H-imidazole-4-carboxylate] | 17.7 |
|  | CCCCc1nc(SC)c(C(=O)OCC)n1Cc1ccc(-c2cccc(S(=O)(=O)NC#N)c2)cc1 [Example 2, Ethyl 2-butyl-5-methylsulfanyl-3-(3′-cyanoaminosulfonylbiphenyl-4-ylmethyl)-3H-imidazole-4-carboxylate] | 39.6 |
| 244 °C (dec.) | CCCCc1nc(SC)c(C(=O)OCC)n1Cc1ccc(-c2ccc(S(=O)(=O)NC#N)cc2)cc1 [Example 3, Ethyl 2-butyl-5-methylsulfanyl-3-(4′-cyanoaminosulfonylbiphenyl-4-ylmethyl)-3H-imidazole-4-carboxylate] | 74.1 |
| 118 °C (dec.) | CCCCc1nc(SC)c(C(=O)OCC)n1Cc1cccc(-c2ccccc2S(=O)(=O)NC#N)c1 [Example 4, Ethyl 2-butyl-5-methylsulfanyl-3-(2′-cyanoaminosulfonyl-biphenyl-3-ylmethyl)-3H-imidazole-4-carboxylate] | 39.7 |
| 112 °C (dec.) | CCCCc1nc(SC)c(C(=O)OCC)n1Cc1cccc(-c2cccc(S(=O)(=O)NC#N)c2)c1 [Example 5, Ethyl 2-butyl-5-methylsulfanyl-3-(3′-cyanoaminosulfonyl-biphenyl-3-ylmethyl)-3H-imidazole-4-carboxylate] | 43.2 |
| 120 °C (dec.) | CCCCc1nc(SC)c(C(=O)OCC)n1Cc1cccc(-c2ccc(S(=O)(=O)NC#N)cc2)c1 [Example 6, Ethyl 2-butyl-5-methylsulfanyl-3-(4′-cyanoaminosulfonyl-biphenyl-3-ylmethyl)-3H-imidazole-4-carboxylate] | 58.6 |
| 105 °C (dec.) | CCCCc1nc(SC)c(C(=O)OCC)n1Cc1ccccc1-c1ccccc1S(=O)(=O)NC#N [Example 7, Ethyl 2-butyl-5-methylsulfanyl-3-(2′-cyanoaminosulfonyl-biphenyl-2-ylmethyl)-3H-imidazole-4-carboxylate] | 72.1 |
| 108 °C (dec.) | CCCCc1nc(SC)c(C(=O)OCC)n1Cc1ccccc1-c1cccc(S(=O)(=O)NC#N)c1 [Example 8, Ethyl 2-butyl-5-methylsulfanyl-3-(3′-cyanoaminosulfonyl-biphenyl-2-ylmethyl)-3H-imidazole-4-carboxylate] | 60.8 |
| 116 °C (dec.) | CCCCc1nc(SC)c(C(=O)OCC)n1Cc1ccccc1-c1ccc(S(=O)(=O)NC#N)cc1 [Example 9, Ethyl 2-butyl-5-methylsulfanyl-3-(4′-cyanoaminosulfonyl-biphenyl-2-ylmethyl)-3H-imidazole-4-carboxylate] | 31.6 |
| > 260 °C | CCOC(=O)c1c(SC)nc(C2CC2)n1Cc1ccc(-c2ccccc2S(=O)(=O)NC#N)cc1 [Example 10, Ethyl 2-cyclopropyl-5-methylsulfanyl-3-(2′-cyanoaminosulfonylbiphenyl-4-ylmethyl)-3H-imidazole-4-carboxylate] | 21.6 |
|  | N#CNS(=O)(=O)c1ccccc1-c1ccc(Cn2c(-c3ccccc3)nc(Cl)c2C=O)cc1 [Example 11, 4′-(4-Chloro-5-formyl-2-phenylimidazol-1-ylmethyl)biphenyl-2-sulfonylcyanamide] | 15.0 |
|  | COc1nc(-c2ccccc2)n(Cc2ccc(-c3ccccc3S(=O)(=O)NC#N)cc2)c1C=O [Example 12, 4′-(4-Methoxy-5-formyl-2-phenylimidazol-1-ylmethyl)biphenyl-2-sulfonylcyanamide] | 20.8 |
| 121 °C (dec.) | CCCCc1ncc(C(=O)OCC)n1Cc1ccc(-c2ccccc2S(=O)(=O)NC#N)cc1 [Example 13, Ethyl 2-butyl-3-(2′-cyanoaminosulfonylbiphenyl-4-ylmethyl)-3H-imidazole-4-carboxylate] | 89.5 |
| 160 °C (dec.) | CCCCc1nc(OC)c(C#N)n1Cc1ccc(-c2ccccc2S(=O)(=O)NC#N)cc1 [Example 14, 4′-(2-Butyl-5-cyano-4-methoxyimidazol-1-ylmethyl)biphenyl-2-sulfonylcyanamide] | 47.3 |
| 135 °C (dec.) | CCCCc1nc(Cl)c(C=O)n1Cc1ccc(-c2ccccc2S(=O)(=O)NC#N)cc1 [Example 15, 4′-(2-Butyl-4-chloro-5-formylimidazol-1-ylmethyl)biphenyl-2-sulfonylcyanamide] | 55.7 |
| 165 °C (dec.) | CCCc1nc(SC)c(C(=O)OCC)n1Cc1ccc(-c2ccccc2S(=O)(=O)NC#N)cc1 [Example 16] | 11.5 |
|  | CCCCc1nc(SC)c(C(=O)OCC)n1Cc1ccc(-c2ccc(S(=O)(=O)NC#N)cc2C(F)(F)F)cc1 [Example 23, Ethyl 2-butyl-5-methylsulfanyl-3-(4′-cyanoaminosulfonyl-2′-trifluoromethylbiphenyl-4-ylmethyl)-3H-imidazole-4-carboxylate] | 31.6 |
|  | CCCCc1nc(SC)cn1Cc1ccc(-c2ccccc2S(=O)(=O)NC#N)cc1 [Example 27, 4′-(2-Butyl-4-methylsulfanylimidazol-1-ylmethyl)biphenyl-2-sulfonylcyanamide] | 50.0 |
|  | N#CNS(=O)(=O)c1ccccc1-c1ccc(Cn2cc(Cl)nc2-c2ccccc2)cc1 [Example 28, 4′-(4-Chloro-2-phenylimidazol-1-ylmethyl)biphenyl-2-sulfonylcyanamide] | 30.5 |
|  | CC(=O)c1c(Cl)nc(-c2ccccc2)n1Cc1ccc(-c2ccccc2S(=O)(=O)NC#N)cc1 [Example 29, 4′-(5-Acetyl-4-chloro-2-phenylimidazol-1-ylmethyl)biphenyl-2-sulfonylcyanamide] | 39.6 |
|  | COc1nc(-c2ccccc2)n(Cc2ccc(-c3ccccc3S(=O)(=O)NC#N)cc2)c1C(C)=O [Example 30, 4′-(5-Acetyl-4-methoxy-2-phenylimidazol-1-ylmethyl)biphenyl-2-sulfonylcyanamide] | 48.8 |
|  | N#CNS(=O)(=O)c1ccccc1-c1ccc(Cn2c(-c3ccccc3)nc(-c3ccccc3)c2-c2ccccc2)cc1 [Example 31, 4′-(2,4,5-Triphenylimidazol-1-ylmethyl)biphenyl-2-sulfonylcyanamide] | 36.5 |
|  | N#CNS(=O)(=O)c1ccccc1-c1ccc(Cn2c(-c3ccccc3)nc(Cl)c2C=O)c(Cl)c1 [Example 32, 3′-Chloro-4′-(4-chloro-5-formyl-2-phenylimidazol-1-ylmethyl)biphenyl-2-sulfonylcyanamide] | 7.8 |
|  | N#CNS(=O)(=O)c1ccccc1-c1ccc(Cn2c(-c3ccccc3)nc(Cl)c2C=O)c(F)c1 [Example 33, 3′-Fluoro-4′-(4-chloro-5-formyl-2-phenyl-imidazole-1-ylmethyl)biphenyl-2-sulfonylcyanamide] | 7.6 |
|  | COc1nc(-c2ccccc2)n(Cc2ccc(-c3ccccc3S(=O)(=O)NC#N)cc2Cl)c1C=O [Example 34, 3′-Chloro-4′-(4-methoxy-5-formyl-2-phenyl-imidazole-1-ylmethyl)biphenyl-2-sulfonylcyanamide] | 5.5 |
|  | N#CNS(=O)(=O)c1ccccc1-c1ccc(Cn2c(-c3ccccc3)nc(Oc3ccccc3)c2C=O)c(Cl)c1 [Example 35, 3′-Chloro-4′-(4-phenoxy-5-formyl-2-phenyl-imidazole-1-ylmethyl)biphenyl-2-sulfonylcyanamide] | 3.2 |
